Literature values as cited in patent US20230136789A1, “POLYMER IMPLANTS” (Foundry Therapeutics, Inc., priority 2020, published 2023).

- pKa: about 8.0
Compound: CCCCN1CCCCC1C(=O)Nc1c(C)cccc1C (stereo not shown) [bupivacaine]
